Laboratory results published in patent US20200407398A1, “Short Proline-Rich Lipopeptide Potentiates Minocycline and Rifampicin Against Multidrug-and Extensively Drug-Resistant Pseudomonas Aeruginosa” (priority 2018, published 2020).
Peptide text beside a SMILES is read from it. * marks the point of attachment. Palmitoyl = CCCCCCCCCCCCCCCC(=O)*

Experiments:
[1] = tested on: A. baumannii CAN-ICU 63169; type: cell-based
Outline: (§1)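 CLSI broth microdilution with 2-fold serial dilutions in Mueller-Hinton broth, inoculum 5×10^5 CFU/mL, incubated 18 hours at 37° C. MIC taken as lowest concentration with no visible turbidity, confirmed by absorbance at 590 nm.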

E. coli ATCC 25922 = type: cell-based
Outline: as §1

[2] = tested on: E. coli CAN-ICU 61714 (gentamicin-resistant); type: cell-based
Outline: as §1

[3] = tested on: E. coli CAN-ICU 63074 (amikacin-intermediate resistant); type: cell-based
Outline: as §1

[4] = tested on: E. coli CANWARD-2011 97615 (gentamicin-, tobramycin-, ciprofloxacin-resistant) aac(3′)iia; type: cell-based
Outline: as §1

E. faecalis ATCC 29212 = type: cell-based
Outline: as §1

E. faecium ATCC 27270 = type: cell-based
Outline: as §1

K. pneumoniae ATCC 13883 = type: cell-based
Outline: as §1

P. aeruginosa ATCC 27853 = type: cell-based
Outline: as §1

[5] = tested on: P. aeruginosa CAN-ICU 62308 (gentamicin-resistant); type: cell-based
Outline: as §1

[6] = tested on: P. aeruginosa CANWARD-2011 96846 (gentamicin-, tobramycin-resistant); type: cell-based
Outline: as §1

[7] = tested on: P. aeruginosa wild-type PAO1; type: cell-based
Outline: as §1

S. aureus ATCC 29213 = type: cell-based
Outline: as §1

[8] = tested on: S. maltophilia CAN-ICU 62584; type: cell-based
Outline: as §1

[9] = tested on: methicillin-resistant S. aureus ATCC 33592; type: cell-based
Outline: as §1

[10] = tested on: methicillin-resistant S. epidermidis CAN-ICU 61589 (ceftazidime-resistant); type: cell-based; details: methicillin-resistant CAN-ICU 61589 (ceftazidime-resistant)
Outline: as §1

[11] = tested on: methicillin-susceptible Staphylococcus epidermidis CANWARD-2008 81388; type: cell-based; details: methicillin-susceptible CANWARD-2008 81388
Outline: as §1

pig erythrocytes = type: cell-based
Outline: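 Washed pig erythrocytes in PBS were mixed with 2-fold serial dilutions of peptide and incubated for 1 h at 37° C. Released hemoglobin in the supernatant was read at 570 nm, with PBS and 0.1% Triton X-100 as controls. MHC was the minimum concentration giving 5% hemolysis.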

[12] = tested on: wild-type and MDR/XDR P. aeruginosa clinical isolates; details: checkerboard assay; P. aeruginosa
Description: We evaluated the activity of SPRLPs in combination with fifteen clinically-used antibiotics against P. aeruginosa. Antibiotics tested included fluoroquinolones (moxifloxacin, ciprofloxacin and levofloxacin), aminoglycosides (gentamicin, tobramycin and amikacin), cephalosporins (ceftazidime and cefotaxime), carbapenems (meropenem and doripenem), aztreonam, rifampicin, minocycline, colistin and fosfomycin. The SPRLPs were screened initially at a fixed concentration of 8 μg/mL (5 μM) in combination with antibiotics against wild-type P. aeruginosa PAO1. We assessed potentiation by at least a four-fold absolute MIC reduction of the antibiotic, after which synergism was further validated by a conventional checkerboard assay. A fractional inhibitory concentration (FIC) index of ≤0.5, 0.5<x≤4 or >4 was interpreted as synergistic, indifferent or antagonistic interaction, respectively (31). FIC index was obtained by adding the FIC values of the antibiotic and the SPRLP adjuvant. FIC of antibiotics was calculated by dividing the MIC of the antibiotic in the presence of the adjuvant by the MIC of the antibiotic alone. Similarly, the FIC of adjuvant was calculated via dividing the MIC of the adjuvant in the presence of the antibiotic by the MIC of the adjuvant alone.
Isolates used in this study were either obtained from the American Type Culture Collection (ATCC), the Canadian National Intensive Care Unit (CAN-ICU) surveillance study (27) or the Canadian Ward Surveillance (CANWARD) study (28). Clinical isolates belonging to the CAN-ICU and CANWARD studies were recovered from patients suffering a presumed infectious disease entering or admitted in a participating medical center across Canada during the time of study. MDR P. aeruginosa strains in this study refer to those that are resistant to aminoglycosides, fluoroquinolones, cephalosporins, and carbapenems while XDR strains are those that are resistant to aminoglycosides, fluoroquinolones, cephalosporins, carbapenems, aztreonam and penicillin+β-lactamase inhibitor combination (39, 40).
(§2) Microbroth dilution susceptibility test following the Clinical and Laboratory Standards Institute (CLSI) guidelines (32) was performed to assess the in vitro antibacterial activity of SPRLPs. Overnight grown bacterial cultures were diluted in saline to achieve a 0.5 McFarland turbidity, followed by 1:50 dilution in Mueller-Hinton broth (MHB) for inoculation to a final concentration of 5×10^5 colony forming units/mL. The assay was done on a 96-well plate to which the agents of interest were 2-fold serially diluted in MHB and incubated with equal volumes of inoculum at 37° C. for 18 hours. MIC was determined as the lowest concentration to inhibit visible bacterial growth in form of turbidity, which was confirmed using EMax Plus microplate reader (Molecular Devices, USA) at a wavelength of 590 nm. The well containing MHB broth with or without bacterial cells was used as positive or negative control, respectively.
The assay was performed on a 96-well plate, to which the agents of interest was 2-fold serially diluted in working MHB. Prior to serial dilution, SPRLP was added to the working MHB media so that a fixed final concentration of 8 μg/mL (5 μM) SPRLP per well was achieved. To ensure that the assay was working, the MIC determination test of the studied antibiotic (without SPRLP) was included on the same plate. Similar MIC results between the assay comparator and an independent MIC determination test (on a different plate) ensured validity of the synergy test. Overnight grown bacterial cultures were diluted in saline to 0.5 McFarland turbidity, followed by 1:50 dilution in MHB (without SPRLP) and inoculation into each well to a final concentration of approximately 5×10^5 colony forming units/mL. Wells containing only MHB (without SPRLP) with or without bacterial cells were used as positive or negative control, respectively.

Gram-positive bacteria = assay: Microbroth dilution MIC, range over panel; type: cell-based; details: against Gram-positive bacteria of the panel
Description: (§3) The synthesized SPRLPs were evaluated for their antibacterial potency against a panel of Gram-positive and Gram-negative bacteria (Tables 2 & 3). Some of the included pathogens were collected from patients visiting or admitted to participating Canadian hospitals through the CAN-ICU (27) and CANWARD (28) national surveillance studies. Antibacterial activity was assessed using minimum inhibitory concentration (MIC) against various clinical pathogens.
as §2

[13] = tested on: Gram-negative bacteria E. coli; assay: Microbroth dilution MIC, range over strains; type: cell-based; details: against the E. coli strains of the panel
Description: as §3, §2

CCCCCCCCCCCCCCCC(=O)N1CCC[C@H]1C(=O)N[C@@H](CCCNC(=N)N)C(=O)N1CCC[C@H]1C(=O)N[C@@H](CCCNC(=N)N)C(=O)N1CCC[C@H]1C(=O)N[C@@H](CCCNC(=N)N)C(=O)N1CCC[C@H]1C(N)=O [Compound C16-PRP, CH3(CH2)14CO-PRPRPRP-NH2] (Palmitoyl-PRPRPRP-NH2)
MIC [1]: 16 µg/mL | MIC (E. coli ATCC 25922): 16 µg/mL | MIC [2]: 8 µg/mL | MIC [3]: 8 µg/mL | MIC [4]: 8 µg/mL | MIC (E. faecalis ATCC 29212): 16 µg/mL | MIC (E. faecium ATCC 27270): 8 µg/mL | MIC (K. pneumoniae ATCC 13883): 64 µg/mL | MIC (P. aeruginosa ATCC 27853): 32 µg/mL | MIC [5]: 32 µg/mL | MIC [6]: 64 µg/mL | MIC [7]: 32 µg/mL | MIC (S. aureus ATCC 29213): 8 µg/mL | MIC [8]: 64 µg/mL | MIC [9]: 16 µg/mL | MIC [10]: 8 µg/mL | MIC [11]: 4 µg/mL | MHC (minimum concentration that resulted in 5% red blood cell hemolysis) (pig erythrocytes): 16 µg/mL | interaction with minocycline (in words) [12]: indifferent interaction | interaction with rifampicin (in words) [12]: indifferent interaction | MIC range (Gram-positive bacteria): 4 to 16 µg/mL | MIC range [13]: 8 to 16 µg/mL
